Entries after “also recorded” stand apart in the source; their conditions may differ. Where a SMILES comes first, the peptide text is derived from it. [ ]: non-standard residue; d: D form.
Tests used:
TRPV4 [1] = molecular target: T1, TRPV4 (Mus musculus, UniProt Q9EPK8); assay: 4α-PDD-evoked Ca++ signaling in 1° MK (fura-2 ratiometric imaging); type: cell-based
T1 construct: endogenous in cells; host or cells: primary mouse keratinocytes (WT 1° MK)
Description: (§1) Ca++ imaging of mouse 1° MK in response to chemical activation of TRPV4 was conducted after loading with 2 μM fura2-AM, following a ratiometric Ca2+ imaging protocol with 340/380 nm […] for dual excitation. Ratios of emissions were acquired at 0.5 Hz. ΔR/R0 was determined as the fraction of the increase of a given ratio over baseline ratio, divided by baseline ratio. For stimulation of cells with UVB, where fura-2 was not suitable because of the proximity of stimulation with 340/380 nm and 295 nm, 2 μM fluo4-AM was used instead. Ca++ imaging was carried out at 488 nm excitation, acquisition of emissions at 0.5 Hz, expressed as ΔF/F0. In the custom-built UV optical system, UV LEDs were capped with a ball lens, a transparent optical window in the shape of a hemispherical lens (FIG. 2B). The LED output optical beam focused at 15-20 mm from the lens, with a spot diameter of approximately 1.5-2.0 mm (FIG. 2C). […] The thermal equilibration stage was set for physiological temperature. We confirmed the non-thermal nature of UVB stimulation using the customized 295 nm LED device in a dedicated experiment (FIG. 2D), thus confirming the specific modality of stimulation as UVB.

[2] = test system: primary mouse epidermal keratinocytes (1° MK); assay: UVB-evoked Ca++ signaling in primary mouse keratinocytes (fluo-4 imaging); type: cell-based; settings: for effect on ET1-augmented, UVB-induced Ca++ transients in 1° MK: UVB and ET1 co-exposure; for effect on UVB-evoked Ca++ signal in 1° MK: concentration not given (IPP: same dose as against camphor)
Description: Ca++ imaging of 1° MK was conducted following routine procedures. For UVB stimulation, a customized device was built. The system comprised a printed circuit board for electrical interconnects and mechanical support and an ultraviolet light-emitting diode (UV LED).
The operating wavelength was 295 nm (FIG. 2A), with a full-width half-max of 12 nm. The optical power was 500 mW. The focal point was aimed at the plane of the upper surface of the quartz coverslip, which was used to minimize UV absorption along the optical path towards the cells (FIG. 2A-C). The optical intensity at the focal point was estimated to be 150 mW/mm^2.
as §1, with “temperature.” for “temperature. We confirmed the non-thermal nature of UVB stimulation using the customized 295 nm LED device in a dedicated experiment (FIG. 2D), thus confirming the specific modality of stimulation as UVB.”

ET1 [3] = assay: ET1 secretion by non-stimulated 1° MK (ELISA of supernatant); type: cell-based, mouse; settings: two doses of GSK205, dose-dependent
ET1 [4] = assay: ET1 expression by UVB-exposed 1° MK (immunocytochemistry); type: cell-based, mouse; settings: for ET1 immunoreactivity in UVB-exposed 1° MK: immunolabeling 24 hours after UVB-LED; for ET1 expression in UVB-exposed 1° MK, densitometric quantification: vs. control-treated and UVB-exposed cells, n≧25 cells, p<0.05
Description: 1° MK were exposed to UVB using the UV optical system (295 nm LED). 24 hours later the cells were fixed and fluorescently immunolabeled for ET1. Digital images were captured and subjected to morphometry.
Mouse keratinocytes were cultured on collagen coated quartz coverslips and then stimulated from the bottom using the previously mentioned UV optical system using the 295 nm LED. 24 hours later the cells were fixed in 4% formaldehyde in PBS for 20 minutes, permeabilized with 0.1% Triton X-100 in PBS for 10 minutes, washed, then blocked in 10% normal goat serum in PBS for 45 minutes. Coverslips were incubated overnight with primary antibody mouse anti-ET1 (1:200; Abcam), washed three times in PBS and incubated with secondary antibody for 2 hours at 25° C. Coverslips were washed three times in PBS, once with double-distilled H2O. Digital images were captured using a 40× immersion lens on the BX61 Olympus upright microscope. Morphometric analysis was conducted using ImageJ freeware with tailored regions-of-interest.

TRPV4 [5] = molecular target: T1, TRPV4; assay: GSK101-evoked Ca++ transient in 1° MK (fura-2); type: cell-based
Description: as §1

TRPV3 = molecular target: T2, TRPV3 (Mus musculus, UniProt Q8K424); assay: TRPV3 activation experiment: camphor-evoked Ca++ transient in keratinocytes; type: cell-based
T2 construct: endogenous in cells; host or cells: primary mouse keratinocytes (1° MK)
T2 sequence (Q8K424 1-791): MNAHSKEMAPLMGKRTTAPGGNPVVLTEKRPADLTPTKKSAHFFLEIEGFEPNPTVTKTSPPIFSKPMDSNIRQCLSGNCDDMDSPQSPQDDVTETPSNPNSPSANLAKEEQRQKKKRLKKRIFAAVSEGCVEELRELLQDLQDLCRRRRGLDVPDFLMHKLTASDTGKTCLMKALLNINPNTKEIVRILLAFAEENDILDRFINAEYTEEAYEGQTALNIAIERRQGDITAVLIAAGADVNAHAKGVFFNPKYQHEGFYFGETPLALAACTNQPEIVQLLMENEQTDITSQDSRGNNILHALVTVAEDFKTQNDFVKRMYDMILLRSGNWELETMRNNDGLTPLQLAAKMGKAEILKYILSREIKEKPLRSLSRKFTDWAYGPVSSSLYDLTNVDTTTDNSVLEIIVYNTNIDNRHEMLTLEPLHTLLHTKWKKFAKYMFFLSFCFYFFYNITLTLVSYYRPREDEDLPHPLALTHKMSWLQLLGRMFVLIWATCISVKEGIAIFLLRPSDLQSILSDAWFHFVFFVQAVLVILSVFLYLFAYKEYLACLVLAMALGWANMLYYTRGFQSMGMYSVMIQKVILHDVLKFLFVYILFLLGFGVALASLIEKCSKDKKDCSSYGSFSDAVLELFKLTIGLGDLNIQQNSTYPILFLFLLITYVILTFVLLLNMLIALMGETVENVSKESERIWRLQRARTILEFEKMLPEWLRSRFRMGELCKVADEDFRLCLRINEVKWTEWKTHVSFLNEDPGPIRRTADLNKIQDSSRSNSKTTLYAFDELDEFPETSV

mice = assay: Nocifensive behavior in response to ET1 footpad injection (von Frey); type: in vivo, mouse
Description: ET1 injections: After determining base-line withdrawal thresholds, each animal received an intraplantar injection of 10 μL 100 nM ET-1 plus contralateral vehicle. Thresholds were again evaluated 1 hour after injection.
Hindpaw mechanical withdrawal thresholds were determined by the automated von Frey hair method, using a 0.5 mm diameter stainless steel filament, part of an automated plantar touch stimulator (Ugo Basile, Modena, Italy). Relevant detail included pre-test acclimatization in a quiet room for 30 min, conducting the test at the same time of day and blinded observers. The stimulus was delivered to the hindpaw, automatically discontinued upon withdrawal, and its intensity recorded automatically. 6-8 trials per animal were conducted, with equal exposure of both hindpaws, leading to an average withdrawal threshold. Results are reported as Δ-threshold, which was calculated by subtracting post-treatment from pre-treatment measurements, expressed as % or relative to 1.0.

T1 sequence (Q9EPK8 whole entry): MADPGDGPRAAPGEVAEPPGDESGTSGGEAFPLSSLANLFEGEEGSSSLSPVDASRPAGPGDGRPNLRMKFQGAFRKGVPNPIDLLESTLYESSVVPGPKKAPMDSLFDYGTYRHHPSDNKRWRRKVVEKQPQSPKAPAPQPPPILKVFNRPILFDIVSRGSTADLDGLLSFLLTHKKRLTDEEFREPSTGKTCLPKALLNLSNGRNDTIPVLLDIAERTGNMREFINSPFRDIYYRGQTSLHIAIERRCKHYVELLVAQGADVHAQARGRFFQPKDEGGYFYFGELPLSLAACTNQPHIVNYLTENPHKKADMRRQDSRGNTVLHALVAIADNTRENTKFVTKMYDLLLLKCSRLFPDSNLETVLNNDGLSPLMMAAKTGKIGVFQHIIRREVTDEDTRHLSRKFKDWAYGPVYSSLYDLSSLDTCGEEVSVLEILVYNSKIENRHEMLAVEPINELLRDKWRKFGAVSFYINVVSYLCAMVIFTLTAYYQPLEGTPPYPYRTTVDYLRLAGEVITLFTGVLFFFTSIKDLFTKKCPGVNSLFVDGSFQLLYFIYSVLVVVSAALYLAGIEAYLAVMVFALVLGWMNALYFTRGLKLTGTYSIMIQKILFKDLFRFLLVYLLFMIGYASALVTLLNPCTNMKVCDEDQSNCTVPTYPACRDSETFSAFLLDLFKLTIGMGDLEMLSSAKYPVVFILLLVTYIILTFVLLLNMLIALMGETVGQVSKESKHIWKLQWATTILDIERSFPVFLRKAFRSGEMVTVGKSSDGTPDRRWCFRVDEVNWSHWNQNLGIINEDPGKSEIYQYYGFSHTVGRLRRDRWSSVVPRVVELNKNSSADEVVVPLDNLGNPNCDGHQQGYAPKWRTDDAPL

Compound | ET1 secretion by non-stimulated 1° MK (ET1 [3]) | ET1 immunoreactivity in UVB-exposed 1° MK (ET1 [4]) | ET1 expression in UVB-exposed 1° MK, densitometric quantification (ET1 [4]) | effect on UVB-evoked Ca++ signal in 1° MK [2] | also measured
CCCCCCCCCC(=O)O[C@@H]1[C@@H](C)[C@@]2(O)[C@@H](C=C(CO)C[C@@]3(O)C(=O)C(C)=C[C@@H]23)[C@@H]2C(C)(C)[C@]12OC(=O)CCCCCCCCC [4α-PDD, 4α-phorbol 12,13 didecanoate] |  |  |  |  | Ca++ transients evoked in 1° MK (TRPV4 [1]; 4α-PDD): Ca++ transients
CC(C)C[C@@H]1NC(=O)[C@@H](C(C)C)NC(=O)[C@@H]2CCCN2C(=O)[C@@H](CC(=O)O)NC(=O)[C@@H](Cc2c[nH]c3ccccc23)NC1=O [BQ123] (cyclo(L[dW][dD]P[dV])) |  |  |  |  | effect on ET1-augmented, UVB-induced Ca++ transients in 1° MK [2]: attenuated
CCCC[C@@H](NC(=O)[C@@H](Cc1cn(C(=O)OC)c2ccccc12)NC(=O)[C@H](CC(C)(C)C)NC(=O)N1[C@H](C)CCC[C@@H]1C)C(=O)O [BQ788] |  |  |  |  | effect on ET1-augmented, UVB-induced Ca++ transients in 1° MK [2]: attenuated
O=C(O)C(Cc1ccc2c(c1)oc1ccccc12)NCP(=O)(O)O (stereo not shown) [CGS35066] | down-regulation | significant down-regulation | significant down-regulation | significantly diminished; also recorded: significant attenuation | 
CC(C)C[C@H](NC(=O)c1cc2ccccc2s1)C(=O)N1CCN(C(=O)[C@H](CO)NS(=O)(=O)c2ccc(Cl)cc2Cl)CC1 [GSK101] |  |  |  |  | Ca++ transient evoked in 1° MK (TRPV4 [5]; 5 nM GSK101, WT 1° MK): directly stimulate TRPV4; also recorded: Ca++ transient
C=C(C)CCO[P@@](=O)(O)OP(=O)(O)O [IPP, isopentenyl pyrophosphate] |  |  |  | no effect; also recorded: not inhibited | 
CC(C)NCCN(C(C)C)S(=O)(=O)c1ccc(Cl)cc1Cl [RN1734] | significant down-regulation | diminished; also recorded: significant down-regulation | significant down-regulation |  | 
COc1ccc2c(c1)CC[C@@H]1[C@@H]2CC[C@]2(C)[C@@H](NCCCCCCN3C(=O)C=CC3=O)CC[C@@H]12 [U73122] | down-regulation | dampened; also recorded: significant down-regulation | significant down-regulation | virtually eliminated; also recorded: strongly reduced | 
CC12CCC(CC1=O)C2(C)C (stereo not shown) [camphor, Camphor] |  |  |  |  | induction of a Ca++ transient (TRPV3): Induction of a Ca++ transient
endothelin-1 [ET1] |  |  |  |  | mechanical allodynia after ET1 footpad injection, TRPV4-deficient mice (mice; Trpv4−/− and tam-treated iKO mice): fail to respond; mechanical withdrawal thresholds after ET1 footpad injection, control mice (mice; WT and oil-treated iKO mice, 10 μL 100 nM ET-1 intraplantar): significantly lowered; also recorded: significant levels of mechanical allodynia; effect of ET1 on GSK101-evoked Ca++ signaling (TRPV4 [5]; 5 nM GSK101, co-exposure to ET1): augmented; also recorded: increase in signal; effect of ET1 co-application on 4α-PDD-evoked Ca++ response (TRPV4 [1]; co-application with 4α-PDD): significant increase; effect of ET1 co-exposure on UVB-evoked Ca++ transients in 1° MK ([2]; co-exposure UVB + ET1 peptide): significant increase; also recorded: augmentation

Source: US9701675B2, “Activation of TRPV4 ion channel by physical stimuli and critical role for TRPV4 in organ-specific inflammation and itch” (Duke University, priority 2012, dated 2017)
